Three compounds from patent US8685695B2, “Method for producing a mixture of bacteriophages and the use thereof in the therapy of antibiotic-resistant staphylococci” (priority 2008, dated 2014) can be followed below.

Like-named read-outs stand apart in the source and are kept apart here.

Test [1] relates to S. aureus M.06.02.0071 (USA300, MRSA, ST8). It counts as in vivo, mouse. Particulars: for Percentage of surviving animals: antibiotics 2 × day. How it is done: A non-sensitive antibiotic (ciprofloxacin) and a sensitive antibiotic (vancomycin) were also used to allow a comparison to be made.
Four groups, each of 20 mice weighing approximately 25 g, were first subjected to immunosuppression to ensure that they would be adequately infected by S. aureus. The immunosuppression began with an application of cyclophosphamide 4 days before the bacterial infection. A further application of cyclophosphamide was carried out 1 day before, together with a once-only administration of cortisone. The immunosuppression with cyclophosphamide was repeated at intervals of 3 days.
The strain of S. aureus which was selected for the infection was resistant to this antibiotic.
The strain of S. aureus which was selected for the infection (internal designation M.06.02.0071) was an isolate which was supplied by the Robert-Koch-Institut of Wernigerode. This S. aureus is a member of the group of USA300 (MRSA, ST8) strains which are considered particularly virulent due to the presence of the virulence factor PVL.
On day 0, the mice had 1.5×10^7 CFU of the S. aureus applied to them intratrachially under anaesthetic.
The medicament, which was applied intratrachially under anaesthetic, was a one-off dose of 5.5×10^10 PFU of a 1:1 mixture of the bacteriophages DSM 18722 and DSM 18723 either one hour before the infection or one hour after the infection. One group, beginning 1 day before the infection, was also treated subcutaneously with vancomycin twice a day.
The main parameter was the determination of lethality as a function of the time elapsed since the start of the test. The length of the test was 14 days.

The subject of test [2] is S. aureus M.06.02.0071. Put plainly: Sensitivity of the strain to bacteriophages and antibiotics. The test is classed as cell-based, Staphylococcus aureus.
Test [3] has as its system S. aureus DSM 18421. The description is as above. The test is classed as cell-based, Staphylococcus aureus.
Test [4] has as its system S. aureus M.06.02.0071. The experiment in a line: Nanocalorimetric measurement of metabolism. The test is classed as cell-based, Staphylococcus aureus. Particulars: antibiotics 10 μg/ml; bacteriophages 4×10^9 PFU/ml. The method, then:
(§1) Another sensitive method of examining the activity of micro-organisms is available in the form of nanocalorimetry. In this technique, metabolic action is measured by way of the heat it produces. The production of heat is measured from the voltage (in [p\/]) generated at thermocouples.
(§2) A detailed description of the measuring system used and the procedure can be found in: J. Lerchner et al., Thermochimica Acta 477, 2008, 48-53.
(§3) The concentration of the bacteriophages was 4×10^9 PFU/ml.

Test [5] relates to S. aureus DSM 18421. The experiment in a line: Nanocalorimetric measurement of metabolism. Particulars: antibiotics 10 μg/ml; bacteriophages 4×10^9 PFU/ml. The test is classed as cell-based, Staphylococcus aureus. How it is done:
as §1, §2, §3

Test [6] has as its system S. aureus from tissue (M.06.02.0071, mouse pneumonia model). Put plainly: Nanocalorimetric measurement of metabolism, bacteria isolated from lung tissue. It counts as cell-based, Staphylococcus aureus. Particulars: antibiotics 10 μg/ml, bacteriophages 4×10^9 PFU/ml. How it is done:
as §1, §2, §3

In test [7] the test system is Staphylococcus aureus DSM 18421. Put plainly: Lysis of Staphylococcus aureus DSM 18421 in saliva (viable cell count). It counts as cell-based. How it is done:
• Morning saliva (before breakfast and before cleaning of teeth) was collected from different individual persons. • The saliva samples were centrifuged for 5 min at room temperature at 12,000 rpm. • The supernatant liquid was removed and sterile filtered (0.8 μm pre-filter, then a 0.22 μm filter). • The samples of saliva were mixed 1:1 in a sterile vessel. 7.2 Incubation of the Preparations for Lysis • To the saliva prepared as described above were also added: • approx. 1×10^4 CFU/ml of DSM 18421 (from a suitable dilution of the overnight culture), • approx. 1×10^8 PFU/ml of phages (Simba Top, 1:1 mixture of purified M and K phages). • Used in addition were serralysin (100 U/ml), dornase (25 μml) or benzonase (25 μml) or a combination of these enzymes. • The enzymes were added right at the start of the incubation. • A control incubation was carried out at the same time in which the phages were replaced by adding the same volume of storage buffers (for composition see below). • The total volume of all the preparations was 2 ml. • The incubation was carried out in 10 ml glass penicillin bottles at 37° C. and 200 rpm (in a shaker incubator) 7.3 Determination of the Viable Cell Count (CFU/ml) After 6 h • After an incubation period of 6 h, an aliquot was taken from each preparation and a factor-of-ten dilution series prepared from it. • 2-5 suitable dilutions were selected from each dilution series and 2×100 μl (twin samples) of each were plated (with a Drigalski spatula). • The plating was performed onto LB agar in the case of the phage-free preparations and onto LB agar containing 0.01% citrate in the case of the preparations containing phages. • After at least 16 h of incubation at 37° C., the colony forming units (CFU's) were counted on each plate • Only plates which had at least 20 CFU's were used to calculate the FIGURE for CFU/ml • A representation in graph form was prepared by plotting CFU/ml (in logarithmic form) against the period of incubation.
Period of incubation: 6 hours Medium: saliva (human; mixture)

Where [8] appears, read: Table 10, 6 h, 37° C., phages approx. 1×10^8 PFU/ml, serralysin 100 U/ml.

For the compound `O=C(O)c1cn(C2CC2)c2cc(N3CCNCC3)c(F)cc2c1=O` [Ciprofloxacin, ciprofloxacin], the “Percentage of surviving animals” value in test [1] (0 hours after infection) was found to be 100%; in test [1] (5 hours after infection) it was 100%; in test [1] (19 hours after infection) it was 60%; in test [1] (23 hours after infection), 45%; in test [1] (29 hours after infection), 35%; in test [1] (43 hours after infection), 10%. Moreover, the “Percentage of surviving animals” value in test [1] (47 hours after infection) turned out to be 10%. Besides, the “Sensitivity of the strain, in words” value in the test with S. aureus M.06.02.0071 [2] is listed as “resistant”.

Regarding `CN[C@H](CC(C)C)C(=O)N[C@H]1C(=O)N[C@@H](CC(N)=O)C(=O)N[C@H]2C(=O)N[C@H]3C(=O)N[C@H](C(=O)N[C@H](C(=O)O)c4cc(O)cc(O)c4-c4cc3ccc4O)[C@H](O)c3ccc(c(Cl)c3)Oc3cc2cc(c3O[C@@H]2O[C@H](CO)[C@@H](O)[C@H](O)[C@H]2O[C@H]2C[C@](C)(N)[C@H](O)[C@H](C)O2)Oc2ccc(cc2Cl)[C@H]1O` [Vancomycin, vancomycin], the “Sensitivity of the strain, in words” value with S. aureus DSM 18421 [3] and with S. aureus M.06.02.0071 [2] was “sensitive” in each case. Besides, the “% relative to control” value in the test on S. aureus M.06.02.0071 [4] amounted to 41%; in the test on S. aureus DSM 18421 [5], 36%; in test [6], 61%. Moreover, the Difference voltage in the test with S. aureus M.06.02.0071 [4] is −4.132 μV; in the test on S. aureus DSM 18421 [5] it was −3.681 μV; in test [6] it was −0.438 μV. Moreover, in test [1] (bacteriophages one-off before the infection, vancomycin prior and thereafter continuous, compared with the placebo), the “Mortality in the acute phase, in words” value is listed as “reduction in mortality”.

For the compound serralysin, in test [7] (6 h), the “Effect on the colony count of S. aureus in saliva, in words” value is recorded as “did not cause a reduction in the colony count”. Besides, in test [7] (setting [8]), the “Colony count, % of control without phages” value turned out to be 130% and the Viable cell count is reported as 1.14 × 10^6 CFU/ml.
